Here are results for 10 molecules from ChEMBL document CHEMBL1201862, “PubChem BioAssay data set” (2004).

Test [1] addresses Aryl hydrocarbon receptor (Homo sapiens, UniProt P35869). Nature of the test: Luminescence-based cell-based high throughput dose response assay for activators of the Aryl Hydrocarbon Receptor (AHR). [Related pubchem assays: 2796 (Primary screen (AHR activators in singlicate)), 2845 (Confirmation screen (AHR activators in triplicate)), 434939 (Counterscreen (PXR activators in triplicate)), 2804 (Summary (AHR activators))]. The test is classed as ADME. (Counterscreens check selectivity or assay interference.)

In test [2] the target is Bifunctional protein GlmU (Mycobacterium tuberculosis, UniProt P9WMN3). Nature of the test: Inhibitors of Mycobacterial Glucosamine-1-phosphate acetyl transferase (GlmU). Secondary screen. Details: species or system Mycobacterium tuberculosis H37Rv.
In a further test the target is T1, Cysteine protease ATG4B (Homo sapiens, UniProt Q9Y4P1).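 Also: Fluorescence-based dose-response confirmation assay measuring inhibition of ATG4B activity.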
T1 sequence (Q9Y4P1 whole entry): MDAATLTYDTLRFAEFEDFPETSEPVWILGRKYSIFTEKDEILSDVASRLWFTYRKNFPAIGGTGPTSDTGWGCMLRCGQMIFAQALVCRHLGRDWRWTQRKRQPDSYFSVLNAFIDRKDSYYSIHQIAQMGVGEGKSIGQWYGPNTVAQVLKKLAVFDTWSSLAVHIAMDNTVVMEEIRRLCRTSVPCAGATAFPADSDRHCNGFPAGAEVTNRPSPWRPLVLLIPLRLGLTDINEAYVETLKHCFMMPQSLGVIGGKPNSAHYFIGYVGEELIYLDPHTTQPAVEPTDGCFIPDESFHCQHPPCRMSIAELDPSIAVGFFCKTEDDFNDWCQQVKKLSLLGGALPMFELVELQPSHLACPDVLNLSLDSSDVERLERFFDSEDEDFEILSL
Type of test: functional.

Another test has as its target Phospholipase A2 (Homo sapiens, UniProt P04054). Type of test: functional.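 Also: confirmatory dose-response counterscreen on phospholipase A2, testing hits that came from an ultra-high-throughput screen for ATG4B inhibitors.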
Test [3] is described as follows: M. tuberculosis growth inhibition, HTS (AID 449762). Type of test: functional.
Test [4] deals with T2, Mannose-6-phosphate isomerase (Homo sapiens, UniProt P34949).
T2 sequence (P34949 whole entry): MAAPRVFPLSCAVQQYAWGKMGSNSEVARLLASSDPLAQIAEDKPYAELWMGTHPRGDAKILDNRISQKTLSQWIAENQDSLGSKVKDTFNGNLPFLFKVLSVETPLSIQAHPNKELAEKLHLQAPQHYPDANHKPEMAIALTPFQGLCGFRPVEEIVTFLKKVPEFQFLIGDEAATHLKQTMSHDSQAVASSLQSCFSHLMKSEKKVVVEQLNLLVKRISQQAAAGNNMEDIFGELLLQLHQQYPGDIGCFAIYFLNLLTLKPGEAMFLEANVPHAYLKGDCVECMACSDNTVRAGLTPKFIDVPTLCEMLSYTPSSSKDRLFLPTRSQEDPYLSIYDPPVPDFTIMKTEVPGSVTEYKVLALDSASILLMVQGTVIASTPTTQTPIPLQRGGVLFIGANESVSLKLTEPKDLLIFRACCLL
Nature of the test: human PMI inhibitors, high substrate, primary screen, biochemical, fluorescence intensity, high mannose 6-phosphate (AID 1220).

For test [5], the target named is Ubiquitin carboxyl-terminal hydrolase BAP1 (Homo sapiens, UniProt Q92560). Nature of the test: BAP1 deubiquitinase inhibitors, dose response, biochemical (AID 714). The test is classed as functional.
The nature of test [6]: cytotoxicity in KRAS-transformed pancreatic duct cells, primary screen, cell-based, fluorescence, HTS (AID 431).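 Also: cell line used: HPDE-C7K.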 The test is classed as functional. The settings on record: Homo sapiens.
A short description of test [7]: inhibitors of PGC1a acetylation in cells, dose response, cell-based, cherry-picked samples (AID 720514).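 Also: potency may reflect raised or lowered acetylation signal.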 The test is classed as functional.
The nature of test [8]: cytotoxicity in HPDE-C7 cells, cell-based, fluorescence, HTS (AID 430). Type of test: functional. Conditions: Homo sapiens.
The next test deals with Vero. Nature of the test: Vero cell cytotoxicity, cytotoxicity control for flavivirus capping enzyme inhibitors (AID 588742). Type of test: functional. The settings on record: Chlorocebus sabaeus.
In test [9] the target is Mitogen-activated protein kinase 10 (Homo sapiens, UniProt P53779). Put plainly: Dose response biochemical screening assay for inhibitors of c-Jun N-Terminal Kinase 3 (JNK3). [Related pubchem assays: 746 ].
The target in another test is Genome polyprotein (dengue virus type 2, UniProt P29990). Put plainly: Dengue-2 NS5 methyltransferase inhibitors, primary screen, biochemical, confirmation dose response (AID 588689). Type of test: functional.
Test [10] deals with Glucose-6-phosphate 1-dehydrogenase (Homo sapiens, UniProt P11413). Put plainly: human G6PD enzyme inhibitors, dose response, selectivity assay for P. falciparum G6PD inhibitor project, biochemical, fluorescence (AID 504792). The test is classed as functional.
Test [11] deals with T3, Sphingosine 1-phosphate receptor 2 (Homo sapiens, UniProt O95136). Put plainly: Dose Response Cell Based Assay for Antagonists of the S1P2 Receptor. [Related pubchem assays: 856, 736 ]. The test is classed as functional.
The target in a further test is Cytochrome P450 3A4 (Homo sapiens, UniProt P08684). Conditions: Potency.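 Also: confirmatory qHTS run detecting inhibitors and substrates of CYP3A4.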
The target of the next test is Cytochrome P450 2C19 (Homo sapiens, UniProt P33261). Put plainly: qHTS Assay for Inhibitors and Substrates of Cytochrome P450 2C19. [Related pubchem assays: 410 ]. Type of test: ADME. Conditions: read-out: Potency. For orientation: Quantitative high-throughput screening tests each substance at several concentrations.
Another test deals with Ephrin type-A receptor 4 (Mus musculus, UniProt Q03137). Put plainly: inhibitors of EphA4 binding to KYL peptide, primary screen, biochemical, colorimetric, mouse EphA4 (AID 689). The test is classed as functional.
In test [12] the target is Glyceraldehyde-3-phosphate dehydrogenase (Homo sapiens, UniProt P04406).
In test [13] the target is T4, Bcl-2-related protein A1 (Mus musculus, UniProt Q07440).
T4 sequence (Q07440 whole entry): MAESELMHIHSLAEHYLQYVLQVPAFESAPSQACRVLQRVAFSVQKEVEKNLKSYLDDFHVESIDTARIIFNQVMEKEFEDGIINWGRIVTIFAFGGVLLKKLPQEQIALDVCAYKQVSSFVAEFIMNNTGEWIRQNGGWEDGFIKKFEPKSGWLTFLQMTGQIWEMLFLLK
Put plainly: Bfl-1 inhibitors blocking BH3 peptide binding, confirmation, biochemical, TR-FRET, mouse Bfl-1 (AID 621).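 Also: TR-FRET binding of GST-Bfl-1 to FITC-labelled Bid peptide via terbium antibody.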 On the technique in general: Time-resolved FRET reads energy transfer from a long-lived donor to a nearby acceptor.

Test [14] addresses T4, Bcl-2-related protein A1. Nature of the test: Bfl-1 binding inhibitors, SAR follow-up, biochemical, fluorescence polarization (AID 1070).
Test [15] concerns the target T3, Sphingosine 1-phosphate receptor 2. Nature of the test: Dose Response Cell Based Assay for Agonists of the S1P2 Receptor. [Related pubchem assays: 729, 736, 843 ]. The test is classed as functional.
Test [16] is described as follows: Luminescence Cell-Based Dose Retest to Confirm Inhibitors of Cancer Stem Cells. [Related pubchem assays (depositor defined):AID2717, AID2721]. The test is classed as functional. Conditions: Homo sapiens.
For a further test, the system named is Streptococcus. Nature of the test: Group A Streptococcus viability loss, dose response, counter-screen for streptokinase expression inhibitor project, luminescence, BacTiterGlo (AID 1915).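 Also: potency for reduction of bacterial viability or growth.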 The test is classed as functional, organism-based.
The target in a further test is T5, Streptokinase A (Streptococcus pyogenes serotype M1, UniProt P10520).
T5 sequence (P10520 whole entry): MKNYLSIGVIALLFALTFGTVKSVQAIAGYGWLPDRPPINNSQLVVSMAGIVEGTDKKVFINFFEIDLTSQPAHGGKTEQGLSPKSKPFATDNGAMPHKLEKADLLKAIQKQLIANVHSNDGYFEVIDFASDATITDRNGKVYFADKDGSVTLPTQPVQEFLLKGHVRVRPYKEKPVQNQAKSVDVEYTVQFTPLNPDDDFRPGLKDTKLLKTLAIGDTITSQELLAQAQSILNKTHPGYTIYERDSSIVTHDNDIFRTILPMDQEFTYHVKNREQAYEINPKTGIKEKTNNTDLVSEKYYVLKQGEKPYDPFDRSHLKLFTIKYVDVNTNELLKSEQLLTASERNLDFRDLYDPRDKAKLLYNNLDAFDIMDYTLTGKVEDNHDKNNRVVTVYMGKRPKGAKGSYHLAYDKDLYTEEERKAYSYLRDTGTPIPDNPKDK
Put plainly: S. pyogenes streptokinase expression inhibitors, potency, dose response, plasminogen activation absorbance, OD405 (AID 1914).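 Also: secreted streptokinase activity via plasminogen activation per viability signal from cell pellet.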 The test is classed as functional, Streptococcus pyogenes M1 GAS.

For test [17], the system named is Streptococcus sp. 'group A'. Put plainly: growth inhibition of control SK(-) GAS strain, dose response, counter-screen for streptokinase expression inhibitor project, luminescence, kanamycin, BacTiterGlo, confirmation (AID 1900). Type of test: functional, organism-based.

Calls of active or inactive are those of the source. Some results are limits rather than exact numbers.

T3 sequence (O95136 whole entry): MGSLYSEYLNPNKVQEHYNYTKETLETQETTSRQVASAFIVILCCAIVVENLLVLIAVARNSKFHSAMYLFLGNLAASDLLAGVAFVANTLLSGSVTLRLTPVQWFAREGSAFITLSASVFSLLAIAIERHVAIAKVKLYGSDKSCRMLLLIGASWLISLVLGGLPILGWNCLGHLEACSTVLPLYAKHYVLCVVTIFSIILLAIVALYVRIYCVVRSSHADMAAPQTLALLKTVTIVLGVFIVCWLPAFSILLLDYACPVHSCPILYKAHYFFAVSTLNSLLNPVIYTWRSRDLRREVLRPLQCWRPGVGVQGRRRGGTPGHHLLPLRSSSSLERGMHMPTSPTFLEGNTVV
Sequence of Cytochrome P450 3A4 (P08684 whole entry): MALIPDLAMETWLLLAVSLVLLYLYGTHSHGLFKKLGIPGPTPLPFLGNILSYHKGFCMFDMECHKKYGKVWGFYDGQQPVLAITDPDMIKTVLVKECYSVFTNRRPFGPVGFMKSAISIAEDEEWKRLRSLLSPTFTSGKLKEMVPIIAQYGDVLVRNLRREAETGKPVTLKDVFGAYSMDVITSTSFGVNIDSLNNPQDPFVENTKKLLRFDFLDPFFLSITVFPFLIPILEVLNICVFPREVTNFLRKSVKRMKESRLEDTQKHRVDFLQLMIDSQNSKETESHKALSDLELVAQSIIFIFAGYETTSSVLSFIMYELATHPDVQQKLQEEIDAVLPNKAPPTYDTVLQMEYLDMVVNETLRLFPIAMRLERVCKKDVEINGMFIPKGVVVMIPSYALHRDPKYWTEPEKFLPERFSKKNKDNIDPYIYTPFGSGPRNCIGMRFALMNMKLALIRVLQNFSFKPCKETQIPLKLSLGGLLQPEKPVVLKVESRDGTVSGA
Sequence of Ubiquitin carboxyl-terminal hydrolase BAP1 (Q92560 whole entry): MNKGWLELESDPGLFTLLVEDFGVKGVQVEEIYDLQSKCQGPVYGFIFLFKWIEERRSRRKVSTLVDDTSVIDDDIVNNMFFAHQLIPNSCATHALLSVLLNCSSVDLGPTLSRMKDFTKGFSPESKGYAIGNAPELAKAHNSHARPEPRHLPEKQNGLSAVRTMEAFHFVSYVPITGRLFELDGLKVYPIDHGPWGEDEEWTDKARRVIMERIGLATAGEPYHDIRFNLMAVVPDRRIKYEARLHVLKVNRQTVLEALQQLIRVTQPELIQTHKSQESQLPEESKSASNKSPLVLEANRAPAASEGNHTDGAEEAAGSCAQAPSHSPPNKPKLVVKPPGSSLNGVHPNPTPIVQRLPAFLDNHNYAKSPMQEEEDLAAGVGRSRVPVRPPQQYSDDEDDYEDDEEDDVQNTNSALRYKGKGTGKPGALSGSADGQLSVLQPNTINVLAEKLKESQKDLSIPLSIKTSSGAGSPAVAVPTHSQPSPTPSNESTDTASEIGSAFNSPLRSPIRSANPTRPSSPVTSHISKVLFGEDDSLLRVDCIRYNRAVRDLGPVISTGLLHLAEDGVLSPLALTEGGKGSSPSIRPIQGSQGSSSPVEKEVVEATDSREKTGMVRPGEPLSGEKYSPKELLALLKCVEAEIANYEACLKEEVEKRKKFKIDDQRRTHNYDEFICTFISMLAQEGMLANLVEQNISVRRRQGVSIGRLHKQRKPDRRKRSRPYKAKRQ
Sequence of Glucose-6-phosphate 1-dehydrogenase (P11413 whole entry): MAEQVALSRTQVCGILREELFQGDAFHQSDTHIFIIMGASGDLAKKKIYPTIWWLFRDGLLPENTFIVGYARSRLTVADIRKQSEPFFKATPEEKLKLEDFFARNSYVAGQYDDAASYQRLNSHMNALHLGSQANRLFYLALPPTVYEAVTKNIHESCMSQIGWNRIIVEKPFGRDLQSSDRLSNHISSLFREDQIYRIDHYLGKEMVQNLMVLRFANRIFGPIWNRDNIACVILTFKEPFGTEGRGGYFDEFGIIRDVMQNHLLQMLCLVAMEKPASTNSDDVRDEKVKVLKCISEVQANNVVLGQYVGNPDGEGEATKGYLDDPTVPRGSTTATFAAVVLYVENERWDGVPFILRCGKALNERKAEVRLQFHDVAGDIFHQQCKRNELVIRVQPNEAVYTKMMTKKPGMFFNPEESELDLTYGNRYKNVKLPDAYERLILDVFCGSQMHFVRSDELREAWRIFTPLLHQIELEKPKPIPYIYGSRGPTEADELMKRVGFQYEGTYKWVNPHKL
Sequence of Ephrin type-A receptor 4 (Q03137 whole entry): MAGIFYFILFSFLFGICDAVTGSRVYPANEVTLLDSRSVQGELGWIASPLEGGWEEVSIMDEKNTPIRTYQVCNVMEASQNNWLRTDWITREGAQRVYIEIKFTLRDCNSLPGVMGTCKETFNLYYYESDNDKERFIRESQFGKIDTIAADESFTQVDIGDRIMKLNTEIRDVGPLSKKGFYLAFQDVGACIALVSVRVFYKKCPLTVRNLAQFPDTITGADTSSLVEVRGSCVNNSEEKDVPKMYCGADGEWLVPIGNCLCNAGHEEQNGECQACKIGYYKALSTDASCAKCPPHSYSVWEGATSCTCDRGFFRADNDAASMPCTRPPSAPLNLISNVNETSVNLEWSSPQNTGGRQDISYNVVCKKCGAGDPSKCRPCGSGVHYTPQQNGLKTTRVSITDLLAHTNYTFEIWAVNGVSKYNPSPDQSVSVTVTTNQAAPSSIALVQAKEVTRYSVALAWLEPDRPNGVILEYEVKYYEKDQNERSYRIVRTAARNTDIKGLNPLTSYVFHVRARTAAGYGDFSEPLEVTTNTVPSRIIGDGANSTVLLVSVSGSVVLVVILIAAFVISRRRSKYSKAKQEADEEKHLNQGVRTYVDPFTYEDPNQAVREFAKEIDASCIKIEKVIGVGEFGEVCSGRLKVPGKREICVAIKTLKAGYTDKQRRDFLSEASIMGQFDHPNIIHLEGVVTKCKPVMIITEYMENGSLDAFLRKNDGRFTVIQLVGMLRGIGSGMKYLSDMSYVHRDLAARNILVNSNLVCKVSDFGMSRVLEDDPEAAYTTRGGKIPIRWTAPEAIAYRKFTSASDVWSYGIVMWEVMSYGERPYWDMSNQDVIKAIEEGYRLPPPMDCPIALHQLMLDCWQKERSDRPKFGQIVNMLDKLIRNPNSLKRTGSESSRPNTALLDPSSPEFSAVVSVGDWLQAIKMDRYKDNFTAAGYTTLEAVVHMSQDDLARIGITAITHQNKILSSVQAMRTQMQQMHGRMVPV
Sequence of Genome polyprotein (P29990 2492-3391 limits assumed): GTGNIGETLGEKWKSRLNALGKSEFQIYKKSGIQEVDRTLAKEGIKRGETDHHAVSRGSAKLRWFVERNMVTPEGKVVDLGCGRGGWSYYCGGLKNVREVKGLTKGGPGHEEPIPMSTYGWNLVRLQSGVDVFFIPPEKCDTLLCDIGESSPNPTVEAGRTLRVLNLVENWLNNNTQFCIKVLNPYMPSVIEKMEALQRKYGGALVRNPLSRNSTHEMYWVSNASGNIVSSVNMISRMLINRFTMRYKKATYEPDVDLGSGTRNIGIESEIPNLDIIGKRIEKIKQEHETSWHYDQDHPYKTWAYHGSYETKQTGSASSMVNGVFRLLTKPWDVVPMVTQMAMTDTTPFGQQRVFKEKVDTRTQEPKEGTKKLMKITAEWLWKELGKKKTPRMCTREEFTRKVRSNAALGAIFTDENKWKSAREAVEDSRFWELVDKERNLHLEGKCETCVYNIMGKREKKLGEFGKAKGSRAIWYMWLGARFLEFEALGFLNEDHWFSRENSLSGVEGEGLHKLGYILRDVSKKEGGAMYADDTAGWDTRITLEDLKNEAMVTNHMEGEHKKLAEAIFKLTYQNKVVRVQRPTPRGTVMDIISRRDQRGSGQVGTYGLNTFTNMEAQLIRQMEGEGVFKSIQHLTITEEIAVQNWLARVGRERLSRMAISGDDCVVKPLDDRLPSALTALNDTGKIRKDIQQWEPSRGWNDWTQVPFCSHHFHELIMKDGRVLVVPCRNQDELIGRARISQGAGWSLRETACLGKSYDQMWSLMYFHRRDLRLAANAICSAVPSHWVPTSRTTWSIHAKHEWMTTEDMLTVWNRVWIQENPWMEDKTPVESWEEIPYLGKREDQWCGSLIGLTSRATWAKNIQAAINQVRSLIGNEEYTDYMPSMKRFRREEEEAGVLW
Sequence of Mitogen-activated protein kinase 10 (P53779 whole entry): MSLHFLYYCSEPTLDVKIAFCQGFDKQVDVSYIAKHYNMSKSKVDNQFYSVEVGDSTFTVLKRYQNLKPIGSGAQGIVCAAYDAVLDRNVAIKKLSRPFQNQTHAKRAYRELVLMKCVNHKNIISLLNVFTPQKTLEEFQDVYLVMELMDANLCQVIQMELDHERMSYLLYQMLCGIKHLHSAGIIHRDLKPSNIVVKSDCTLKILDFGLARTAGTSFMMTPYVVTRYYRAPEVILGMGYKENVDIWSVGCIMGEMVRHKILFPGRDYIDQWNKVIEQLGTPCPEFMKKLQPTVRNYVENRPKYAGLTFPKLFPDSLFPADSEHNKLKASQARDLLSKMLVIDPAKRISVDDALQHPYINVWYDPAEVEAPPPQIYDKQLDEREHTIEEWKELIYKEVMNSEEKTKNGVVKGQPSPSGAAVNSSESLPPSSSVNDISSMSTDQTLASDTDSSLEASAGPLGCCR
Sequence of Bifunctional protein GlmU (P9WMN3 whole entry): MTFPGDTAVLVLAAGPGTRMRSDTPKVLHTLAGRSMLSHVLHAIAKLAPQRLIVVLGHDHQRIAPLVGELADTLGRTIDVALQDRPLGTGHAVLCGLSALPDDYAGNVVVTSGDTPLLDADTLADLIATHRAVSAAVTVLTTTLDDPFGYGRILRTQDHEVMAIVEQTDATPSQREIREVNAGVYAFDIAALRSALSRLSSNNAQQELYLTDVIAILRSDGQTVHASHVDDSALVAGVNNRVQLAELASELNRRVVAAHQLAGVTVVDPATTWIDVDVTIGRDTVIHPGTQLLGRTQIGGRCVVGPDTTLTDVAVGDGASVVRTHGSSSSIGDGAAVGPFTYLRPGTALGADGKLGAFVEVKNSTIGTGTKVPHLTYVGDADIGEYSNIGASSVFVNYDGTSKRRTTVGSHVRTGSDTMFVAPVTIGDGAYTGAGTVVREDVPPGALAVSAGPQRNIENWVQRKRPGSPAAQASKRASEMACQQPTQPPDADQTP

`COc1ccc(NC(=O)c2ccc(C)cc2)c(OC)c1`: the EC50 in test [1] was 3.78 µM (active).
`C=CC#CC[N+]1(CC#Cc2ccccc2)CCOCC1`: the IC50 in test [2] was 124 µM (active); on Cysteine protease ATG4B it was 5.56 µM (active); at Phospholipase A2 it was 11.8 µM (active).
Turning to `CN(C(=O)COC(=O)/C=C/c1ccc(Cl)c(Cl)c1)c1c(N)n(Cc2ccccc2)c(=O)[nH]c1=O`, in test [3], the IC50 was > 100 µM (active).
Turning to `COc1ccc(C(=O)CNc2ccc3ccccc3c2)cc1`, the IC50 in [4] was > 50 µM (not active).
In the case of `N#Cc1c(NC(=O)CCN2C(=O)c3ccccc3C2=O)oc(-c2ccccc2)c1-c1ccccc1`, the IC50 in test [5] is given as > 50 µM (not active).
As for `CC(=O)Nc1cc(OC(C)=O)c2nonc2c1OC(C)=O`, the EC50 in [6] was 6.32 µM (active); in test [8] it was 5.65 µM (active). Moreover, in test [7], the AC50 was 4.89 µM (active). Besides, the CC50 in the test with Vero was 12.6 µM (active). The half-inhibitory concentration (IC50) is 46.6 µM (not active) in test [9], 38 µM (active) on Genome polyprotein, > 80 µM (inactive) in [10] and 6.21 µM (active) in test [11].
As for `C=C/C1=C/Cc2ccccc2C(C[N+](=O)[O-])C(C(=O)OC)(C(=O)OC)C1` (configuration not stated), the AC50 on Cytochrome P450 3A4 was 3.16 µM (inconclusive); at Cytochrome P450 2C19, 7.94 µM (inconclusive).
On to `COc1ccc(C(=O)CN2CCOCC2)cc1F`, for which the IC50 at Ephrin type-A receptor 4 was > 100 µM (not active).
Take `COC(=O)c1cc(C)nc(S(C)(=O)=O)n1`: the IC50 (in [12]; on Bcl-2-related protein A1 [13]; on Bcl-2-related protein A1 [14]) was > 100 µM (not active) in each case.
In the case of `Clc1ccc(-c2ccc(/C=N/Nc3cc(N4CCOCC4)nc(N4CCOCC4)n3)o2)cc1`, the EC50 in test [15] was 10.8 µM (not active); in the test with Streptococcus, 17.1 µM (active); on Streptokinase A, > 150 µM (not active); in test [17], 19.4 µM (active). For the same molecule, the CC50 in the test with Vero is 34.6 µM (active). In test [16], the AC50 was 1.73 µM (active).

Broadly, the EC50 is the concentration needed to bring the measured effect to its halfway point. A word on the IC50: it is the concentration needed to halve the response being measured. For orientation: CC50 means the concentration at which the toxic effect on the cells reaches its halfway point.
